In patent EP0614662A1, “Use of (2E,4E,6E,10E)-3,7,11,15-tetramethyl-2,4,6,10,14-hexadecapentaenoic acid for the treatment of leukaemia” (Eisai Co., Ltd., priority 1993, dated 1994):

What was measured:
[1] = test system: mice; conditions: cited from earlier work
[2] = test system: APL; conditions: clinical data, Blood, 72, 567 - 572 (1988); cited from earlier work
[3] = test system: HL-60; assay: Cytotoxicity on HL-60 (viable cell count, Trypan Blue); assay type: cell-based; conditions: human, 5 days
Method: After the completion of the incubation, the total cell count was calculated with a Burker-Turk calculation board and the viable cell count was calculated by regarding the cells stained with Trypan Blue as the dead ones. Thus ID₅₀ and LD₅₀ were determined. Further, a cytospin slide was prepared and the morphology of the cells was observed by the May-Giemsa staining method.

[4] = test system: mouse papilloma; conditions: cited from earlier work
[5] = Acute toxicity test, single dose, SD rats; conditions: in vivo, Rat (SD)
Method: (§1) By using 5 female and 5 male SD rats and ICR mice aged 7 to 8 weeks, the toxicities of the compound of the present invention were tested through oral, intramuscular, subcutaneous and intraperitoneal administrations each in a single dose (medium: 5% gum arabic).

[6] = test system: cells of APL patients; assay: Ability to induce differentiation of cells of APL patients; assay type: cell-based, human
Method: To illustrate the usefulness of the compound of the present invention as a differentiation inducer, a test example on the effects of the compound of the present invention on leukemic cells of APL patients and various cultured human leukemic cell lites will be given. The backgrounds of the patients providing the bloods employed in the test are as follows.
The cells samples from APL patients were adjusted to an initial cell count of 1 × 10⁶ cells/ml and incubated in the above-mentioned IMDM medium containing 10% of fetal calf serum for 5 days under the addition of the compound (I) or ATRA (10⁻⁶ to 10⁻⁸ mol/1), followed by the same evaluation as the one effected in the case of HL-60. Further, the ratio of mature cells to all the cells was determined in accordance with the following formula and taken as an indication for the comparison of the ability to induce differentiation: [formula]

[7] = Acute toxicity test, single dose, ICR mice; conditions: in vivo, Mouse (ICR)
Method: as §1

[8] = female, ♀, oral, medium 5% gum arabic, read-out: LD₅₀ Oral
[9] = female, ip, ♀, intraperitoneal, read-out: LD₅₀ Intraperitoneal
[10] = female, sc, ♀, subcutaneous, read-out: LD₅₀ Subcutaneous
[11] = male, ♂, oral, medium 5% gum arabic, read-out: LD₅₀ Oral
[12] = male, im, ♂, intramuscular, read-out: LD₅₀ Intramuscular
[13] = male, ip, ♂, intraperitoneal, read-out: LD₅₀ Intraperitoneal
[14] = male, sc, ♂, subcutaneous, read-out: LD₅₀ Subcutaneous

Compound: CC1=C(/C=C/C(C)=C/C=C/C(C)=C/C(=O)O)C(C)(C)CCC1 [ATRA, all-trans-retinoic acid, reference compound]
- hypervitaminosis A (depilation, reduction in body weight) [1]: suffered from hypervitaminosis A including depilation and reduction in body weight
- healing of APL patients [2]: about 100%
- ratio of the dead cells stained with Trypan Blue [3]: ≤ 10%

Compound: CC(C)=CCC/C(C)=C/CC/C(C)=C/C=C/C(C)=C/C(=O)O [compound (I), (2E,4E,6E,10E)-3,7,11,15-tetramethyl-2,4,6,10,14-hexadecapentaenoic acid]
- antitumor effect [4]: exerts an antitumor effect
- hypervitaminosis A (depilation, reduction in body weight) [1]: did not suffer from such a symptom
- LD50 [5, 8]: 2850 mg/kg
- LD50 [5, 9]: 680 mg/kg
- LD50 [5, 10]: 2800 mg/kg
- LD50 [5, 11]: 2400 mg/kg
- LD50 [5, 12]: 830 mg/kg
- LD50 [5, 13]: 731 mg/kg
- LD50 [5, 14]: 2500 mg/kg
- effect of inducing differentiation ([6]; 5 days incubation, 10⁻⁶ to 10⁻⁸ mol/l): exhibited an effect of inducing differentiation similar to ATRA
- efficacy on cells having a fused gene PML-RAR-α ([6]; PML/RAR-α (+)): effective in all of the cases
- ratio of the dead cells stained with Trypan Blue [3]: ≤ 10%
- LD50 [7, 8]: > 6250 mg/kg
- LD50 ([7]; female, im, ♀, intramuscular, read-out: LD₅₀ Intramuscular): > 2000 mg/kg
- LD50 [7, 9]: 1.1 mg/kg
- LD50 [7, 10]: > 4 mg/kg
- LD50 [7, 11]: > 6250 mg/kg
- LD50 [7, 12]: 2 mg/kg
- LD50 [7, 13]: 970 mg/kg
- LD50 [7, 14]: > 4000 mg/kg
